Assay [1] in a line: Agonist activity at NAADP receptor in sea urchin egg homogenate assessed as increase in calcium release by fluo-3 based flurometric assay. The format is tissue-based, Strongylocentrotus purpuratus.
A short description of assay [2]: Desensitization of NAADP receptor in sea urchin egg homogenate assessed as ability to induce time dependent sub-threshold desensitization of calcium release pretreated for 7 mins followed by 1 uM NAADP added by measuring inhibition of calcium release by fluorometric assay. The format is tissue-based, Strongylocentrotus purpuratus.

For 3 compounds, EC50 and IC50 results are on record in ChEMBL document CHEMBL4680308, “Chemo-enzymatic synthesis of adenine substituted nicotinic acid adenine dinucleotide phosphate (NAADP) analogs” (Bioorg Med Chem, 2021).

Usually EC50 stands for the concentration at which the effect is half-maximal. In general, IC50 refers to the midpoint of a concentration-inhibition curve. Regarding `Nc1ncnc2c1ncn2[C@@H]1O[C@H](COP(=O)(O)OP(=O)(O)OC[C@H]2O[C@@H]([n+]3cccc(C(=O)[O-])c3)[C@H](O)[C@@H]2O)[C@@H](O)[C@H]1OP(=O)(O)O`, the EC50 in assay [1] is 0.008 µM. In addition, the IC50 in assay [2] amounted to 0.00014 µM.
With `C#Cc1nc2c(N)ncnc2n1[C@@H]1O[C@H](COP(=O)(O)OP(=O)(O)OC[C@H]2O[C@@H]([n+]3cccc(C(=O)[O-])c3)[C@H](O)[C@@H]2O)[C@@H](O)[C@H]1OP(=O)(O)O`, the 50% effective concentration (EC50) in assay [1] amounted to 0.71 µM. In addition, the IC50 in assay [2] worked out at 0.0121 µM.
The like results for `C#Cc1nc2c(N)ncnc2n1[C@@H]1O[C@H](COP(=O)(O)OP(=O)(O)OC[C@H]2O[C@@H]([n+]3cc(N=[N+]=[N-])cc(C(=O)[O-])c3)[C@H](O)[C@@H]2O)[C@@H](O)[C@H]1OP(=O)(O)O` were, in that order, 2.86 µM and 0.099 µM.
